Reference: a melting point compilation (Tetko et al.; mined from patent text by program, amines drawn as free bases though some values may be those of a salt)

`O=c1cc(OCc2ccccc2)c2ccc(OCCc3ccc(F)cc3)cc2o1` showed a melting point of 120 °C. Molecule `COc1cc(C(=O)O)ccc1Cn1cc(CC(C)C(=O)N(C)C)c2ccc(C(=O)NCC3CCCC3)cc21` (configuration not stated) has a melting point of 120 to 122 °C. Molecule `CC(C)(C)COc1ccc(N(CC(=O)O)C(=O)c2cnn(-c3ccc(F)cc3)c2)cc1C#N` has a melting point of 274 to 275 °C. Work on `Oc1ccc2[nH]cc(C3=CCN(Cc4ccccc4)CC3)c2c1` yielded a melting point of 223 to 227 °C. `C[C@H](NC(=O)C12CC3CC(CC(C3)C1)C2)C(=O)N1CCC[C@H]1C(=O)Nc1ccccc1` showed a melting point of 119 to 121 °C. `CCOC(=O)C=Cc1ccc(N)cc1C` showed a melting point of 73 to 74 °C. `CC1Cc2cc(S(N)(=O)=O)cc(C(=O)NC3CCN(Cc4ccccc4)CC3)c2O1` (configuration not stated) showed a melting point of 226 to 228 °C. `Cc1oc(-c2ccccc2)nc1/C=C/c1ccc(/C=C/CO)cc1` showed a melting point of 165 to 166 °C. Molecule `O=C(c1nnc(-c2ccccc2)o1)N1CC(Oc2ccc(CN3CC(C(F)F)C3)cc2)C1` has a melting point of 147 °C. With `CCOC(=O)c1c(C(F)(F)F)nc(C(F)F)c(C(=O)OC)c1NC1CC1` the melting point was 68 to 69.5 °C. For `CN(C[C@H]1CC[C@H](c2nc3ccccc3[nH]2)CC1)C(=O)OCc1ccccc1`, the melting point was 146 to 148 °C. For `CNC(=O)C(Cc1ccc(OC)cc1)NC(=O)CC(S)C(CC(C)C)C(N)=O` (configuration not stated), the melting point was 221 to 225 °C. `COC(=O)C(=Cc1c[nH]c2cc(C)ccc12)NC(C)=O` gave a melting point of 182 to 183 °C. `CC(C)CC(=O)OC1(C(=O)CO)CCC2C3CC(C)C4=CC(=O)C=CC4(C)C3C(O)CC21C` (configuration not stated) gave a melting point of 164 °C. With `O=C1NC(=O)C(Cc2ccc(OC3=C(Cl)C(=O)c4ccccc4C3=O)cc2)S1` (configuration not stated) the melting point was 250 to 252 °C. For `Nc1sc2c(c1C(=O)c1ccccn1)CCCC2`, the melting point was 191 to 193 °C. For `O=C(CCl)NC(C(=O)O)c1cscn1` (configuration not stated), the melting point was 193 to 195 °C. For `CC(=O)Nc1ccc(Oc2ccc(S(C)(=O)=O)cc2C)cc1`, the melting point was 169 °C. `Fc1cc(Br)c2ncccc2c1` gave a melting point of 75 to 78 °C. In the case of `Nc1ccc(C(=O)Nc2ccc(-c3c[nH]c(=O)cn3)cc2)cc1`, the melting point is reported as greater than 300 °C. Work on `CCN1CC(C(=O)Nc2cnccn2)CC2c3cccc4[nH]cc(c34)CC21` (configuration not stated) yielded a melting point of 151 to 155 °C. For `COC(=O)C(Cc1ccc(O)cc1)NC(=O)C(Cc1ccccc1)NC(=O)c1ccc(OC)cc1` (configuration not stated), the melting point was 195 to 197 °C. `Brc1ccc(N2CCNCC2)nc1` showed a melting point of 70.6 °C. In the case of `NS(=O)(=O)c1ccccc1SCC(F)F`, the melting point is reported as 111 to 112 °C. `COc1ccc(-c2c3c(c(C)c4ccc(OC)cc24)C(=O)NC3)cc1` gave a melting point of 235 to 237 °C. `CCCOc1cc2c(cc1C=O)C(C)(C)CCC2(C)C` showed a melting point of 51 to 52 °C. In the case of `O=S(=O)(c1ccc(S)cc1)c1ccc(S)cc1`, the melting point is reported as 138 to 140 °C. Molecule `CC(C)c1cccc(C(C)C)c1NC(=O)CN[C@H](C)c1ccccc1` has a melting point of 119 to 120 °C. `CC(S)Cn1c(=O)[nH]c2ccccc2c1=O` (configuration not stated) showed a melting point of 206 to 208 °C. For `CCOC(=O)c1csc(C)c1N(CC)c1nc(C)cc(C)n1`, the melting point was 99 to 100 °C. In the case of `CCOc1cc(Cc2cnc(N)nc2N)cc2c1OC(C)(C)C=C2c1cccc(F)c1`, the melting point is reported as 185 to 186 °C. In the case of `CCOc1ccc(-c2nc(-c3cccc(C(=O)O)c3)cs2)cc1OCC`, the melting point is reported as 192 to 193 °C. In the case of `CSc1ccc(CC(=O)C(=O)O)cc1`, the melting point is reported as 165 to 167 °C. For `Cc1ccc(Cc2cnc(NCCCNc3ncccc3C)[nH]c2=O)cn1`, the melting point was 119 to 123 °C. In the case of `O=[N+]([O-])c1ccc(SNCCO)c(C(Cl)(Cl)Cl)c1`, the melting point is reported as 85 °C. Work on `CC(C)c1cc(-c2ccc(F)cc2)c(C=O)c(C(C)C)n1` yielded a melting point of 72 to 75 °C. `COc1ccc2c3c(oc2c1)CC(CC1CCN(Cc2ccccc2)CC1)C3=O` (configuration not stated) gave a melting point of 137 to 138 °C. `Nc1cccc2c1C(=O)N(c1ccc(OC(F)(F)F)cc1)C2=O` showed a melting point of 161 to 162 °C. For `Cc1cc(C(F)(F)F)nn1CC(=O)N1CCC(C(N)=S)CC1`, the melting point was 185 to 186 °C. In the case of `CC(=O)OCCOCc1nc2nccnc2c(=O)[nH]1`, the melting point is reported as 157 to 159 °C. For `CC(=O)Nc1nsnc1-c1c(Cl)cccc1Cl`, the melting point was 180 to 185 °C. For `O=[N+]([O-])c1cnc(Sc2nc(-c3ccc(Cl)cc3)n[nH]2)s1`, the melting point was 181 to 184 °C. `COc1ccc(S(=O)(=O)N2c3ccccc3CC2C(=O)NO)cc1` (configuration not stated) showed a melting point of 142 °C. With `O=S(=O)(N[C@H](Cc1ccc(C(F)(F)F)cc1)[C@@H](O)c1ccc(F)cc1)c1cccc2ccccc12` (racemic) the melting point was 176 to 177 °C. Work on `CN1CCN(c2nc3sc4c(NCc5cccnc5)ncnc4c3c3c2CCC(C)(C)C3)CC1` yielded a melting point of 210 to 212 °C. With `COc1cc(N)c(Cl)cc1C(C)=O` the melting point was 114 to 116 °C. In the case of `C=C(C(=O)OC)N(Cc1cc(C)ccc1NC(=O)c1ccccc1)S(=O)(=O)c1ccc(OC)cc1`, the melting point is reported as 58 to 62 °C. With `COc1ccc2c(c1)CCC1C2CCC2(C)C(=NNS(=O)(=O)c3ccccc3)CCC12` (configuration not stated) the melting point was 183 to 185 °C. For `O=C(O)c1ccc(-c2ccc(OCCCCO)c(-c3ccc(N4CCCC4)c(C(F)(F)F)c3)c2)cc1`, the melting point was 237 °C. Work on `O=C1c2ccccc2-c2c1c(-n1ccnc1)nc1ccc(Br)cc21` yielded a melting point of 283 to 285 °C. Molecule `CCC(Br)C(=O)Nc1c(C)cccc1C` (configuration not stated) has a melting point of 180 to 190 °C. `NCCc1c2ccccc2n2c1[nH]c(=O)c1ccccc12` gave a melting point greater than 300 °C. In the case of `CCN(CC)C(=O)c1cccc(C=O)c1`, the melting point is reported as 115 to 119 °C. `CCc1n[nH]c(CC)c1CCCCCCOc1ccc(OC)cc1[N+](=O)[O-]` gave a melting point of 103 to 105 °C. In the case of `CNC(=O)C(Cc1ccc(OC)cc1)NC(=O)C(CC(C)C)C(S)CC(=O)OCc1ccccc1` (configuration not stated), the melting point is reported as 133 to 135 °C. In the case of `c1ccc(CN(Cc2ccccc2)c2cccc3c2ncc2nc4n(c23)CCC4)cc1`, the melting point is reported as 275 to 277 °C. Molecule `CS(=O)c1ncc2ccc(=O)[nH]c2n1` (configuration not stated) has a melting point of 237 to 242 °C. `CSc1nnc(-c2ccc3occ(-c4ccccc4Cl)c3c2)o1` gave a melting point of 137 to 138 °C. With `CCn1cc(C(=O)O)c(=O)c2cc(F)c(N3C[C@@H](N)[C@@H](C)C3)c(Cl)c21` (relative stereo) the melting point was 222 to 224 °C. Work on `CC(=O)OC1CCCc2cnc3ccc(OCc4ccccc4[N+](=O)[O-])cc3c21` (configuration not stated) yielded a melting point of 125 to 127 °C. Work on `COC(=O)C=Cc1ccc(OCc2nc(-c3ccccc3)c(C)s2)cc1` yielded a melting point of 142 to 143 °C. With `CCOC(=O)c1cc2n(c1)CN(C(=O)OCC)c1c(OC)cccc1-2` the melting point was 172 to 174 °C. `CC(=O)NCCNC(=O)c1ccccn1` gave a melting point of 96 to 99 °C. Molecule `C1=C(c2ccncc2)CCC2(C1)OCCO2` has a melting point of 67 to 70 °C. Work on `OC(CCl)CSc1ncc(Cl)cn1` (configuration not stated) yielded a melting point of 99 °C. `CC(=O)Oc1ccc(C(=O)N2CCN(CC(C)(C)S)CC2)cc1` gave a melting point of 121 °C. In the case of `CC(C)(C)c1ccc(COc2cc3c(cc2C(=O)c2ccc(C(=O)O)cc2)C(C)(C)CCC3(C)C)cc1`, the melting point is reported as 218 to 219 °C. `Nc1cnc(-c2ccncc2)c(-c2cccc(F)c2)n1` showed a melting point of 221 to 222 °C. `COc1cccc2c1nc(C(F)F)n2-c1nc(N2CCOCC2)nc(N2CCC(NS(=O)(=O)C(F)(F)F)CC2)n1` showed a melting point of 282 to 285 °C. Molecule `O=C1CCC2(CC2)C(=O)C1` has a melting point of 116 to 118 °C. In the case of `CCOC(=O)C(Cc1ccccc1)=NO`, the melting point is reported as 54 to 55 °C. `CCOc1ccc(C(=O)N2CCc3nnc(NN)cc3C2)cc1` showed a melting point of 171 to 173 °C. With `CNCCOc1cccc2c1CC(=O)N2` the melting point was 153 to 156 °C. For `O=C(O)CON=c1c2nccc3cccc(c32)n2cccc12`, the melting point was 212 °C. `CN(C(=O)COc1nnc(-c2ccco2)s1)c1ccccc1` gave a melting point of 94 °C. In the case of `COC1=C(OC)C(=Nc2ccc(Cl)c(Cl)c2)N(C)C1=O`, the melting point is reported as 111 to 113 °C. Molecule `CC/C(=C\C=C\C(=O)O)c1ccc(OC)cc1` has a melting point of 136 to 137 °C. Molecule `Cc1ccc2c(c1)Cn1nnnc1C(=S)N2` has a melting point of 293 to 296 °C. `CC(=O)Nc1ccc2c(c1)c(C1=C(c3cn(C)c4ccccc34)C(=O)NC1=O)cn2C` gave a melting point of 276 to 279 °C. In the case of `O=C(O)CNC(=O)c1cccc(NC(=O)C(CS)Cc2ccccc2)c1` (configuration not stated), the melting point is reported as 80 to 83 °C. `CNC12CCCCC1CCc1cc(O)ccc12` (configuration not stated) gave a melting point of 191 °C. `CC(C)N1CCN(c2ccc(C(=O)NC3(C(=O)NCC#N)CCCCC3)cc2)CC1` showed a melting point of 218 to 220 °C. Molecule `Brc1oc2ccc(Cc3nnn[nH]3)cc2c1-c1ccccc1` has a melting point of 215 to 217 °C. Molecule `Cc1noc(C)c1Cn1cc(N2C(=O)CN(CCc3cccc(F)c3)C2=O)cn1` has a melting point of 110 to 111 °C. Work on `Cc1c(-c2ccccc2)nc2n1C(C)(C)Cc1ccccc1C2OC1CCN(C)CC1` (configuration not stated) yielded a melting point of 152 °C. Work on `COC(=O)CCNCc1ccc(-c2cc3ncnc(Nc4ccc5[nH]ccc5c4)c3s2)cc1` yielded a melting point of 105 to 118 °C. In the case of `COc1ccc(CCNC(=O)C(=O)NCCCCCCNC(=O)OC(C)(C)C)cc1OC1CCCC1`, the melting point is reported as 135 to 137 °C. With `CC(=O)c1cccc2oc(C(=O)Nc3ccc(-c4ccc(S(=O)(=O)NC(C(=O)O)C(C)C)cc4)cc3)c(C)c12` (configuration not stated) the melting point was 228 to 235 °C. Molecule `O=S(=O)(Cc1cc(F)cc(F)c1)NC1CN(C(c2ccc(Cl)cc2)c2cccnc2)C1` (racemic) has a melting point of 110 °C. Molecule `CC(C)c1nn(-c2ccc(C(F)(F)F)cn2)cc1CO` has a melting point of 119 to 120 °C. Work on `CCC(=O)NC(=O)c1cc([N+](=O)[O-])cnc1C` yielded a melting point of 171 to 173 °C. `CCCCNS(=O)(=O)CC(O)C(O)C(CC1CCCCC1)NC(=O)C(CC)Cc1c[nH]cn1` (configuration not stated) showed a melting point of 60 to 90 °C. For `CCOC(=O)[C@H](Cc1ccc(-c2c(OC)cc(C=O)cc2OC)cc1)NC(=O)c1c(F)cccc1F`, the melting point was 114 to 116 °C. In the case of `CC(=O)CC(=O)c1ccc(OCCCN2CCCCC2)cc1`, the melting point is reported as 43 to 45.5 °C. `COC(=O)Nc1nc2cc(SCC3(C)CC3(Cl)Cl)ccc2[nH]1` (configuration not stated) gave a melting point of 175 to 178 °C. `CC1CN(c2c(F)cc3c(=O)c(C(=O)O)cn(C4CC4)c3c2Cl)CC1NC(=O)OC(C)(C)C` (configuration not stated) showed a melting point of 210 to 213 °C. For `CCOC(=O)c1ccccc1CS(=O)(=O)Cl`, the melting point was 63 to 64 °C. Work on `NCc1ccc(CO)cc1` yielded a melting point of 102 to 123 °C. `OCc1conc1-c1ccc(-c2ccccc2)cc1` showed a melting point of 138 to 139 °C. With `CCCCOc1cc(C(=O)O)cc([N+](=O)[O-])c1C(=O)c1ccc(C)cc1` the melting point was 162 to 163 °C. `O=C(O)CCCCCNC(=O)c1ccc(NC(=O)c2ccccc2O)cc1` showed a melting point of 201 to 203 °C. `CCOC(=O)c1sc(-c2ccc3c(=O)n(CC(C)C)c(CNC(=O)OC(C)(C)C)c(-c4ccccc4)c3c2)nc1C` gave a melting point of 201 to 202 °C.
